# Where two headings read alike, the source gives them in different places. Peptide text beside a SMILES is read from it. * marks the point of attachment. Biotin = O=C1N[C@H]2[C@H](CS[C@H]2CCCCC(=O)*)N1; Ahx = NCCCCCC(=O)O
# Key:
# HSV-1 KOS = experiment: Plaque reduction assay; format: cell-based; conditions: presence of serum
# Procedure: Cell culture and virus: The procedures for growing Vero cells and preparing high titer stocks of HSV-1 KOS as described in Grau et al., Invest. Ophthal. and Vis. Sci. 30: 2474 (1989) were utilized. Vero cells were maintained in carbonate-buffered DMEM supplemented with 5% calf serum and 5% fetal bovine serum (regular medium). For some studies, cells were switched to serum-free DMEM buffered with 25 mM HEPES (pH 7.4) and allowed to adapt to that medium for 30 min prior to experimental treatments. Vero cells were seeded into wells (0.28 cm^2) of microtiter plates either at 3.5×10^4 cells/well for use 1 day later (8×10^4 cells/well) or at 1×10^4 cells/well for use 3 days later (2×10^5 cells/well).
# Plaque reduction assay: Confluent Vero cell cultures in microtiter plates were infected for 1 hour at 37° C. in 40 μL of medium. Except where indicated, peptide treatments in 40 μL of medium lasted from 1 hour before through 1 hour after infection. At the end of the adsorption period, the cultures were re-fed with 100 μL of regular medium. Plaque formation was scored 2 days later and the number of plaques scored per well was normalized to the number counted in the absence of peptide. Using an ocular micrometer, plaque size (π/2×L×S) was determined by measuring the largest plaque diameter (L) and the diameter at a 90° angle to that (S). The size of each of the first 40 scored plaques was measured except when a plaque included less than 10 rounded cells or touched the side of the well.
# HSV-1 KOS mutant hrR3 [1] = conditions: read-out: inhibition of hrR3 infection IC50; serum-free conditions
# HSV-1 KOS mutant hrR3 [2] = conditions: read-out: post-entry effects IC50; peptide added after citrate treatment, 8 h
# HSV-1 KOS mutant hrR3 [3] = experiment: LacZ+ virus (hrR3) entry assay with pre-adsorbed virus (entry block); format: cell-based
# Procedure: LacZ^+ virus (hrR3) entry assay: Confluent Vero cell cultures in 96-well microtiter plates were switched to Hepes-buffered serum-free DMEM, cooled on ice to 4° C. for 30 min, and infected with hrR3 for 1 hour at 4° C. in 40 μL of medium. Unattached virus was removed by rinsing with ice-cold medium. Treatments with antiviral peptide SEQ ID NO:1, referred to as EB, or a control peptide which comprised the RRKK tetra-peptide (SEQ ID NO:16) attached to a scrambled version of the membrane transiting peptide RRKKLAALPLVLAAPLAVLA (SEQ ID NO:17) (referred to as EBX), or mock-treatments with peptide-free medium were carried out in serum-free DMEM as indicated. Virus entry was initiated by transferring cultures to 37° C. To inactivate any remaining extracellular virus, cultures were rinsed with PBS and exposed to low pH citrate buffer (40 mM citric acid, 10 mM KCl, 135 mM NaCl, pH 3.0, according to Highlander et al., J. Virol. 61:3356 (1987), for 1 min at 23° C. The citrate was rinsed off with PBS and cultures were maintained in serum-supplemented DMEM until they were fixed with 0.5% gluteraldehyde in 5×PBS for 30 min at 23° C., stained for β-galactosidase activity for 1 hour or overnight at 23° C. with X-gal (Fisher Biotech; BP1615-1) in 1×PBS containing […], 1.3 mM K4Fe(CN)6, and 1.3 mM K3Fe(CN)6, and scored for the presence of blue […] cells.
# In these studies, the hrR3 virus was pre-adsorbed to cells for 1 hour at 4° C. before ice cold 25 μM EB or EBX were added in serum-free DMEM. After an additional 1 hour at 4° C., cultures were shifted to 37° C. to initiate virus entry. At 15 min intervals following the temperature shift, any virus remaining outside the cells was inactivated by washing the cultures with low pH citrate buffer. Cultures were then rinsed and returned to peptide-free serum-supplemented DMEM until they were fixed and stained for β-galactosidase 8 hours after the temperature shift.
# (§1) Two assays were used to assess the ability of the TAT peptides to inhibit infection of Vero cells with the hrR3 virus. In both assays, the virus was preadsorbed to cells at 4° C. and entry was initiated in the presence of peptide by shifting the cultures to a permissive temperature (30-37° C.). One hour later, the peptide was rinsed off. The entry blocking activity was measured in half of the cultures, in which any extracellular virus remaining after the peptide treatment was inactivated with low pH citrate buffer. The rest of the cultures were exposed to PBS instead of citrate buffer and used to measure virus inactivation. Virus inactivation depended on persistent effects of the peptide lasting for a period of eight hours. At the end of that period, all cultures were fixed and infected cells were detected by staining with X-gal.
# (§2) Virus (m.o.i.=0.025) was preadsorbed to Vero cells for 1 h at 4° C. before cultures were exposed to TAT-C (FIG. 15A), bTAT-9X (FIG. 15B), or n50,51TAT-C (FIGS. 15C, 15D) for 1 h at 33 (FIGS. 15A, 15B), 31 (FIG. 15C), or 37° C. (FIG. 15D). […] Inhibition of entry was measured in the citrate-treated cultures, in which any remaining external virus was inactivated immediately following exposure to peptide (●). Persistent virus inactivation lasting, at least in part, for the 8 h period following exposure to peptide, was measured in the PBS-treated cultures (◯). The IC50s measured in these experiments are included in Table 5.
# in vitro = conditions: African green monkey
# HSV-1 KOS mutant hrR3 [4] = experiment: Inactivation of pre-adsorbed virus (virus inactivation); format: cell-based
# Procedure: as §1, §2
# hrR3 virions = experiment: Inactivation of virions in solution; format: cell-based, HSV-1; conditions: 37° C.; read-out: Inactivation of Virions 37° C. IC50
# Procedure: Inactivation of virions: To assess the ability of peptides to inactivate virions, 3-4×10^6 pfu/mL of virus was mixed on ice with peptide in serum-free DMEM and incubated for 1 h at 4 or 37° C. Aliquots (10 μL) were diluted 1000-fold into peptide-free serum-supplemented DMEM at 23° C. and 50 μL aliquots were assayed in triplicate for infectivity in Vero cell cultures (dilution assay). Alternatively, 10 μL aliquots were diluted into 1 mL of ice-cold peptide-free serum-supplemented DMEM and the virus was pelleted as described above (centrifugation assay). Viral pellets were then resuspended in 250 μL serum-supplemented DMEM and 50 μL aliquots were assayed in triplicate for infectivity in Vero cell cultures.
# Some of the virus diluted without the addition of NaCl was pelleted immediately (Control), while the rest of the diluted virus was stored at 4° C. and pelleted 19 h later. The virus was pelleted and assayed for infectivity as described in Example 1.
# hrR3 = experiment: Virucidal assay; format: cell-based, HSV-1
# Procedure: […] The treated virus was diluted 200-fold with serum-supplemented DMEM and assayed for infectivity approximately 1 hour later in microtiter wells seeded with Vero cells (3.5×10^4 cells/well) 1 d earlier. Forty or 100 microliter volumes of diluted virus were adsorbed for 1 or 2 h at 37° C. and lacZ^+ cells were scored 8 hours later. In some experiments, aliquots of diluted virus were first dialyzed (Spectra/Por; MWCO 12-14,000) overnight at 4° C. against a 60-fold excess volume of Hepes-buffered serum-supplemented DMEM or forced by syringe through 0.22 μm membranes (Millex-GV; Millipore) before the remaining infectious virus was assayed.
# [5] = 33° C., read-out: Entry Block IC50
# [6] = 33° C., read-out: Virus Inactivation IC50 (pre-adsorbed virus)
structure (smiles),measurement,setting,value
"N=C(N)NCCC[C@H](NC(=O)[C@@H](N)CCCNC(=N)N)C(=O)N[C@@H](CCCCN)C(=O)N[C@@H](CCCCN)C(=O)O [R-R-K-K tetramer, R-R-K-K, reference compound] (H-RRKK-OH; N-terminus and C-terminus assumed)",concentration with no antiviral activity,HSV-1 KOS,> 200 µM
same,IC50,HSV-1 KOS mutant hrR3 [1],1300 µM
CC(C)C[C@H](NC(=O)CCCCCNC(=O)CCCC[C@@H]1SC[C@@H]2NC(=O)N[C@@H]21)C(=O)N[C@H](C(=O)N[C@@H](CC(C)C)C(=O)N[C@@H](C)C(=O)N[C@@H](C)C(=O)N1CCC[C@H]1C(=O)N[C@@H](CC(C)C)C(=O)N[C@@H](C)C(=O)N[C@H](C(=O)N[C@@H](CC(C)C)C(=O)N[C@@H](C)C(=O)N1CCC[C@H]1C(=O)NCC(=O)N[C@@H](CCCNC(=N)N)C(=O)N[C@@H](CCCCN)C(=O)N[C@@H](CCCCN)C(=O)N[C@@H](CCCNC(=N)N)C(=O)N[C@@H](CCCNC(=N)N)C(=O)N[C@@H](CCC(N)=O)C(=O)N[C@@H](CCCNC(=N)N)C(=O)N[C@@H](CCCNC(=N)N)C(=O)N[C@@H](CCCNC(=N)N)C(=O)N[C@@H](CS)C(N)=O)C(C)C)C(C)C [b12TAT-C] ({Biotin-Ahx}-LVLAAPLAVLAPGRKKRRQRRRC-NH2),IC50,HSV-1 KOS mutant hrR3 [2],100 µM
same,IC50,HSV-1 KOS mutant hrR3 [3]; [5],3.3 µM
same,IC50,in vitro,~200 µM
same,IC50,HSV-1 KOS mutant hrR3 [4]; [6],11 µM
"CC(C)C[C@H](NC(=O)[C@H](CC(=O)O)NC(=O)[C@H](CC(N)=O)NC(=O)[C@@H](NC(=O)[C@@H](NC(=O)[C@H](C)NC(=O)CNC(=O)[C@H](C)NC(=O)[C@H](Cc1ccc(O)cc1)NC(=O)CNC(=O)[C@@H]1CCCN1C(=O)[C@H](CCCNC(=N)N)NC(=O)[C@H](CCCNC(=N)N)NC(=O)[C@H](CCCNC(=N)N)NC(=O)[C@H](CCC(N)=O)NC(=O)[C@H](CCCNC(=N)N)NC(=O)[C@H](CCCNC(=N)N)NC(=O)[C@H](CCCCN)NC(=O)[C@H](CCCCN)NC(=O)[C@H](CCCNC(=N)N)NC(=O)CNC(=O)[C@H](Cc1ccc(O)cc1)NC(=O)CCCCCNC(=O)CCCC[C@@H]1SC[C@@H]2NC(=O)N[C@@H]21)C(C)C)C(C)C)C(=O)O [bTAT-9, b - YGRKKRRQRRR-9] ({Biotin-Ahx}-YGRKKRRQRRRPGYAGAVVNDL-OH)",IC50,HSV-1 KOS mutant hrR3 [2],210 µM
same,IC50,HSV-1 KOS mutant hrR3 [3]; [5],2.1 µM
same,IC50,in vitro,~200 µM
same,IC50,HSV-1 KOS mutant hrR3 [4]; [6],110 µM
"CC(C)C[C@H](NC(=O)CNC(=O)[C@H](CC(N)=O)NC(=O)[C@H](C)NC(=O)[C@H](Cc1ccc(O)cc1)NC(=O)[C@@H](NC(=O)[C@H](CC(=O)O)NC(=O)CNC(=O)[C@@H]1CCCN1C(=O)[C@H](CCCNC(=N)N)NC(=O)[C@H](CCCNC(=N)N)NC(=O)[C@H](CCCNC(=N)N)NC(=O)[C@H](CCC(N)=O)NC(=O)[C@H](CCCNC(=N)N)NC(=O)[C@H](CCCNC(=N)N)NC(=O)[C@H](CCCCN)NC(=O)[C@H](CCCCN)NC(=O)[C@H](CCCNC(=N)N)NC(=O)CNC(=O)[C@H](Cc1ccc(O)cc1)NC(=O)CCCCCNC(=O)CCCC[C@@H]1SC[C@@H]2NC(=O)N[C@@H]21)C(C)C)C(=O)N[C@H](C(=O)N[C@@H](C)C(=O)O)C(C)C [bTAT-9X, b - YGRKKRRQRRR-9x] ({Biotin-Ahx}-YGRKKRRQRRRPGDVYANGLVA-OH)",IC50,hrR3 virions,> 1200 µM
same,Virucidal Activity 4° C. IC50,hrR3; 4° C.,None
same,Virucidal Activity 37° C. IC50,hrR3; 37° C.,None
same,extent of inhibition of entry,HSV-1 KOS mutant hrR3 [3]; 33° C.,~90%
same,IC50,"HSV-1 KOS mutant hrR3 [3]; 33° C., read-out: Entry Block 33° C. IC50",2 µM
same,IC50,HSV-1 KOS mutant hrR3 [3]; [5],2 µM
same,IC50,"HSV-1 KOS mutant hrR3 [3]; 33° C., read-out: inhibition of entry IC50",2 µM
same,IC50,"HSV-1 KOS mutant hrR3 [3]; 37° C., read-out: Entry Block 37° C. IC50",8.7 µM
same,IC50,HSV-1 KOS mutant hrR3 [3]; read-out: Entry Blocking Activity IC50,67 µM
same,IC50,"HSV-1 KOS mutant hrR3 [4]; 33° C., read-out: Inactivation of Pre-Adsorbed Virus 33° C. IC50",200 µM
same,IC50,HSV-1 KOS mutant hrR3 [4]; [6],200 µM
same,IC50,"HSV-1 KOS mutant hrR3 [4]; 33° C., read-out: virus inactivation IC50",200 µM
same,IC50,"HSV-1 KOS mutant hrR3 [4]; 37° C., read-out: Inactivation of Pre-Adsorbed Virus 37° C. IC50",63 µM

# — US7432045B2 (priority 2003, dated 2008)
